Measured values as given in ChEMBL document CHEMBL1137403, “Discovery of 2-[4-{{2-(2S,5R)-2-cyano-5-ethynyl-1-pyrrolidinyl]-2-oxoethyl]amino]- 4-methyl-1-piperidinyl]-4-pyridinecarboxylic acid (ABT-279): a very potent, selective, effective, and well-tolerated inhibitor of dipeptidyl peptidase-IV, useful for the treatment of diabetes” (J Med Chem, 2006).
pKi: −log10 of the molar value.

Tests used:
Dipeptidyl peptidase 8 = Dipeptidyl peptidase 8 (Homo sapiens, UniProt Q6V1X1)
Dipeptidyl peptidase 9 = Dipeptidyl peptidase 9 (Homo sapiens, UniProt Q86TI2)
Dipeptidyl peptidase 2 = Dipeptidyl peptidase 2 (Homo sapiens, UniProt Q9UHL4); assay: Inhibition of DPP7
Prolyl endopeptidase = biological target: T1, Prolyl endopeptidase (Homo sapiens, UniProt P48147); assay: Inhibition of POP
T1 sequence (P48147 whole entry): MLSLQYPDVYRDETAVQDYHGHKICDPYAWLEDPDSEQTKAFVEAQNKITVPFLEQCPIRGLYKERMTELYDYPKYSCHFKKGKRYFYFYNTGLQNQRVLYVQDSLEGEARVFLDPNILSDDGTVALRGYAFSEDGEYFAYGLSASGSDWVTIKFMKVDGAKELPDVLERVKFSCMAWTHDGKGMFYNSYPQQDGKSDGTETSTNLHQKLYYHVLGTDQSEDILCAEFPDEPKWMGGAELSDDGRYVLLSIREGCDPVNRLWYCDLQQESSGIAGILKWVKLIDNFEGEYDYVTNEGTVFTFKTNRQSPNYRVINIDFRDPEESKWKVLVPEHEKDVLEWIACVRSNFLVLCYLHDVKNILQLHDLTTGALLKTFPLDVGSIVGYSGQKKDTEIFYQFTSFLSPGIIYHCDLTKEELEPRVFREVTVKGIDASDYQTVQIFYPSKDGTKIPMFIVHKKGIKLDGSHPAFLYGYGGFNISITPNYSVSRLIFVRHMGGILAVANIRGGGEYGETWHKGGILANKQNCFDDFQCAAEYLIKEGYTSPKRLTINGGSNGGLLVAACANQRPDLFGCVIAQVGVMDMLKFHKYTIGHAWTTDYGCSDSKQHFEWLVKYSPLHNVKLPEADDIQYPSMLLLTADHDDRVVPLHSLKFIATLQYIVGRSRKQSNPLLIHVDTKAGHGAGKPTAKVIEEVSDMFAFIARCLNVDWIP

Prolyl endopeptidase FAP = biological target: T2, Prolyl endopeptidase FAP (Homo sapiens, UniProt Q12884); assay: Inhibition of FAPalpha
T2 sequence (Q12884 whole entry): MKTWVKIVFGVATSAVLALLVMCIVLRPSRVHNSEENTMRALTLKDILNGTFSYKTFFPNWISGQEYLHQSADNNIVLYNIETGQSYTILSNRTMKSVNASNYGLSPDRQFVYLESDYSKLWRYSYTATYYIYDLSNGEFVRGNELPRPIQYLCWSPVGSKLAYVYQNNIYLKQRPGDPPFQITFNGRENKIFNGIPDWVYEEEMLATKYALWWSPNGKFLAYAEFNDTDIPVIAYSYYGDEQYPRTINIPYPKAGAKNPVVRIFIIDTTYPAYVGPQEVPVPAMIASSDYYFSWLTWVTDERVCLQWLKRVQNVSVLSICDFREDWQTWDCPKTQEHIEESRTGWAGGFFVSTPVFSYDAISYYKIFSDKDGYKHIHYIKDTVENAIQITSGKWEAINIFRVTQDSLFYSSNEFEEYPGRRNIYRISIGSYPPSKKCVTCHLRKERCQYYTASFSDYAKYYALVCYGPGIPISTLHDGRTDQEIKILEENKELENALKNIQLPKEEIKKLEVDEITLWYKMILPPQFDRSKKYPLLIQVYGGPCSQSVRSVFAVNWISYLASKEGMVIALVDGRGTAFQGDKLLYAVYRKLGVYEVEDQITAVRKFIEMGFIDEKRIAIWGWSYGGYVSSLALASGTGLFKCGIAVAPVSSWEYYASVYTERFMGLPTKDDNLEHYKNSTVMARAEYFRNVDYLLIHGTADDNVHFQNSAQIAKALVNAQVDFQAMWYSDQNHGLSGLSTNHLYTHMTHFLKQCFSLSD

Measured: pKi

Dipeptidyl peptidase 9, sequence (Q86TI2 whole entry): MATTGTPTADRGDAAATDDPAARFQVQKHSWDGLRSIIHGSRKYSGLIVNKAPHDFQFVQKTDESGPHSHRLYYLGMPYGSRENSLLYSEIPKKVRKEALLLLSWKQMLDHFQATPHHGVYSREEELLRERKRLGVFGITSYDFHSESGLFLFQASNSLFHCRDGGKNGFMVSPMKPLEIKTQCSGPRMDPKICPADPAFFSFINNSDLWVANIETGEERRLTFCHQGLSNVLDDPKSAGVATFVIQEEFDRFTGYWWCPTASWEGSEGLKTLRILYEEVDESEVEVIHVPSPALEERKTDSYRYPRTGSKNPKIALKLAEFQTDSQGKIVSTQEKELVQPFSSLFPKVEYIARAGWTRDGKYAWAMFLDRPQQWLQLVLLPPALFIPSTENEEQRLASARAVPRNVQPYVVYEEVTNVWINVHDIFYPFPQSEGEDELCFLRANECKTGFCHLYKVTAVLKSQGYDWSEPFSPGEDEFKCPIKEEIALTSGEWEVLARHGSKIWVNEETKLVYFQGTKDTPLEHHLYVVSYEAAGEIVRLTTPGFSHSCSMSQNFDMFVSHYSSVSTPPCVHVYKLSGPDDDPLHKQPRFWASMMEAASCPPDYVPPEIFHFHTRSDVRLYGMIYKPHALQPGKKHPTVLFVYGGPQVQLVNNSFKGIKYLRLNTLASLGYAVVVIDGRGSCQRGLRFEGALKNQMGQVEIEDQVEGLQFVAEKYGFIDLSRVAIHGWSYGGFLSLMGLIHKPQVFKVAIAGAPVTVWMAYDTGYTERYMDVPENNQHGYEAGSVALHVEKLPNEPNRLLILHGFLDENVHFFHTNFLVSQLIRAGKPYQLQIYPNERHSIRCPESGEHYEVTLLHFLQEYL
Dipeptidyl peptidase 8, sequence (Q6V1X1 whole entry): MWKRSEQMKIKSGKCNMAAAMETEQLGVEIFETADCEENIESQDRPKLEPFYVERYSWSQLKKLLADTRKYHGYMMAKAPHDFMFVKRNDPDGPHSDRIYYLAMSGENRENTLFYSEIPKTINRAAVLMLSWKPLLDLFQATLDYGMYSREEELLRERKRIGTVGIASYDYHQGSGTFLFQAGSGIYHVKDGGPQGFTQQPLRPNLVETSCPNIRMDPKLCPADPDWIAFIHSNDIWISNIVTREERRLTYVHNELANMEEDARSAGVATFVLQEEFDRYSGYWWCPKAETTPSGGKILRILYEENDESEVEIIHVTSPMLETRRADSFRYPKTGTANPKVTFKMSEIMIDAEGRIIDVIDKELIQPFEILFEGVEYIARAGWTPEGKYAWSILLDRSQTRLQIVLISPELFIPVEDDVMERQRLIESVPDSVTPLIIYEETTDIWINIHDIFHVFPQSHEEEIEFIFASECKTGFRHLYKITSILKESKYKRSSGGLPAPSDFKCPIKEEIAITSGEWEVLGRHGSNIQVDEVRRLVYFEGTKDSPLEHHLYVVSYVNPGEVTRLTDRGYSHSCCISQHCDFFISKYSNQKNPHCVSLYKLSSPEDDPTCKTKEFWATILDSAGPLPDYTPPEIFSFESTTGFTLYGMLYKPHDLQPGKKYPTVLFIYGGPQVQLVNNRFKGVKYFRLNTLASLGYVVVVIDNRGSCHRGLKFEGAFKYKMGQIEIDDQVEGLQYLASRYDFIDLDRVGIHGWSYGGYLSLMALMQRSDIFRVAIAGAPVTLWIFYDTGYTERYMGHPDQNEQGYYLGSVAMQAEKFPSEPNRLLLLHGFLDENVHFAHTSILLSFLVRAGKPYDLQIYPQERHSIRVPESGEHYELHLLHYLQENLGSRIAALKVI

C#C[C@H]1CC[C@@H](C#N)N1C(=O)CNC12CC3CC(CC(O)(C3)C1)C2
< 4.52: Dipeptidyl peptidase 8 | Dipeptidyl peptidase 9

C#C[C@H]1CC[C@@H](C#N)N1C(=O)CNC1(C)CCN(c2ccc(C(=O)O)cn2)CC1
< 4.52: Dipeptidyl peptidase 8 | Dipeptidyl peptidase 9 | Dipeptidyl peptidase 2 | Prolyl endopeptidase | Prolyl endopeptidase FAP
